Test results: article PMC2410110, “Differential effects of ketoconazole on exposure to temsirolimus following intravenous infusion of temsirolimus” (British Journal of Cancer, 2008)
Where “and” joins values, the source holds several entries; their conditions need not be identical. Identical values can stand only once. Entries after “also recorded” stand apart in the source; their conditions may differ. Like-named read-outs stand apart in the source and are kept apart here.

Tests used:
[1] = Drug interaction study: whole blood pharmacokinetics of temsirolimus and sirolimus after single 5-mg i.v. temsirolimus alone or with oral ketoconazole; type: in vivo, human; conditions: for Intersubject variability, CV for Cmax and AUC: both treatment periods; for Cmax / AUC / AUC(0-t) / clearance / half-life / Tmax / Vd: human; for Cmax / AUC / AUC(0-t) / clearance / half-life / Tmax / Vd / CL / Vss / T1/2: whole blood
Procedure: (§1) In this open-label, non-randomised, single-centre, two-period, sequential study, subjects received temsirolimus (Torisel™; Wyeth Pharmaceuticals, Philadelphia, PA, USA) alone, followed by temsirolimus in combination with ketoconazole after a 14-day washout period. On study day 1 of the first period, subjects received 25 mg i.v. diphenhydramine, followed 30 min later by 5 mg i.v. temsirolimus over 30 min. Subjects remained in the clinical unit until the 72-h blood collection (study day 4) and returned for subsequent blood draws at designated time points over the next 4 days (study days 5–8). Study days 9 through 13 were part of the washout period. During the second period, subjects returned to the clinical unit on study day 14. On study day 15, they received 400 mg oral ketoconazole, followed 90 min later by a 25-mg i.v. dose of diphenhydramine. Thirty minutes later, subjects were administered a 30-min i.v. infusion of 5 mg temsirolimus. Subjects remained in the clinical unit until the 72-h blood draw (study day 18) and returned for all subsequent blood draws. They continued to take 400 mg ketoconazole orally each day through study day 21. Subjects fasted for 10 h before receiving temsirolimus and for 4 h afterward.
Blood samples were collected predose, immediately before the end of the infusion (0.5 h), and at 1, 3, 8, 24, 48, 72, 96, 120, 144, and 168 h after administration of temsirolimus on study days 1 and 15. Samples were collected in evacuated tubes containing ethylenediaminetetraacetic acid (EDTA) and gently mixed, then stored upright at −70°C until shipment.
Analytes and internal standard were extracted from a 1-ml sample of EDTA-treated whole blood by liquid–liquid extraction with 1-chlorobutane and separated with a YMC PDS AQ HPLC column (Waters, Milford, MA, USA). Analytes were detected by tandem mass spectrometry using atmospheric pressure chemical ionisation. The concentration of analytes was determined with calibration standards using linear least squares regression.
Pharmacokinetic parameters for temsirolimus were analysed for each subject for each study period using non-compartmental methods ([Jusko, 1992]). Scheduled times were used for all calculations. The Cmax and the time to reach Cmax (Tmax) were determined visually from the concentration–time curves. The terminal elimination rate constant, λz, was estimated by log-linear regression of the terminal portion of the whole blood concentration–time curves. The terminal elimination half-life (T1/2) was calculated as 0.693/λz. The area under the concentration–time curve (AUCT) was calculated using the trapezoidal rule for the ascending portion of the curve, and the log-trapezoidal rule for the descending portion of the curve. […] Clearance (CL) is the volume of plasma cleared of the drug per unit time (dose/AUC). Apparent clearance was corrected for the fraction of the dose that was metabolised (CL/fm). The apparent volume of distribution during the terminal phase (Vz) was calculated by (CL/fm)/λz. The calculation of the steady-state volume of distribution (Vdss) incorporated dissociation and association rates of protein and tissue binding. Vdss was defined as (dose/AUC)MRTu, where MRTu is the mean residence time of the unbound drug in the plasma ([Berezhkovskiy, 2004]).
(§2) The geometric mean relative bioavailability of Cmax, AUC, and AUCT and the 90% confidence limits were calculated using ANOVA to determine the magnitude of the effect of ketoconazole. Vital signs, ECG intervals, and laboratory parameters were screened for prespecified, potentially clinically important criteria.

[2] = Safety: treatment-emergent adverse events in healthy subjects receiving temsirolimus alone or with ketoconazole; type: in vivo, human
Procedure: as §1, §2

[3] = set-up: method as in Atkins et al, 2004; conditions: ref Atkins et al, 2004, cited from earlier work
[4] = set-up: method as in Boni et al, 2007; conditions: healthy adults; with rifampin; ref Boni et al, 2007; cited from earlier work
[5] = set-up: method as in Boni et al, 2007; conditions: cancer patients; ref Boni et al, 2007; cited from earlier work
[6] = set-up: method as in Punt et al, 2003; conditions: stored at −70°C; ref Punt et al, 2003; cited from earlier work
[7] = set-up: method as in Zimmerman, 2004; conditions: oral sirolimus; ref Zimmerman, 2004; cited from earlier work
CYP3A4 [8] = system: CYP3A4; set-up: method as in Cai et al, 2007; conditions: in vitro liver microsome systems, ref Cai et al, 2007, cited from earlier work
CYP3A4 [9] = conditions: read-out: Ki for inhibition of the metabolism of sirolimus; reference not given; cited from earlier work
[10] = 5 mg i.v. temsirolimus + ketoconazole vs temsirolimus alone
[11] = intravenous, single 5 mg i.v. temsirolimus + ketoconazole 400 mg oral, healthy subjects, mean (CV)
[12] = intravenous, single 5 mg i.v. temsirolimus + ketoconazole 400 mg oral, mean (CV)
[13] = iv, single 5 mg i.v. temsirolimus alone, healthy subjects, mean (CV)
[14] = iv, single 5 mg i.v. temsirolimus alone, mean (CV)
[15] = iv, 5 mg, 5 mg i.v. temsirolimus, irrespective of treatment (with or without ketoconazole), read-out: Time to maximal concentration
[16] = iv, 5 mg, single 5 mg i.v. temsirolimus alone, mean (CV)
[17] = iv, 5 mg, single 5 mg i.v. temsirolimus alone, mean (CV), read-out: Tmax
[18] = single 5 mg i.v. temsirolimus + ketoconazole 400 mg oral, mean (CV)
[19] = single 5 mg i.v. temsirolimus alone, mean (CV)
[20] = with ketoconazole relative to single 5-mg i.v. temsirolimus alone, 90% CI in brackets
[21] = single 25-mg dose of temsirolimus, patients with RCC, CV=17%
[22] = 5 mg i.v. temsirolimus + 400 mg oral ketoconazole vs temsirolimus alone

## CO[C@H]1C[C@@H]2CC[C@@H](C)[C@@](O)(O2)C(=O)C(=O)N2CCCC[C@H]2C(=O)O[C@H]([C@H](C)C[C@@H]2CC[C@@H](OC(=O)C(C)(CO)CO)[C@H](OC)C2)CC(=O)[C@H](C)/C=C(\C)[C@@H](O)[C@@H](OC)C(=O)[C@H](C)C[C@H](C)/C=C/C=C/C=C/1C [Temsirolimus]
[1]; [10]
  Decrease in mean clearance with ketoconazole: approximately 10%
[1]; 400 mg oral ketoconazole with 5 mg i.v. temsirolimus, healthy subjects
  Effect of ketoconazole coadministration on Cmax or AUC: no significant effect; also recorded: No substantial differences
[1]
  Intersubject variability, CV for Cmax and AUC: < 16%
[1]; [11]
  Cmax: 263 ng/mL
[1]; [12]
  AUC: 992 ng·h/mL
  AUC(0-t): 969 ng·h/mL
  clearance: 85.7 mL/min
  half-life: 23.7 h
[1]; [13]
  Cmax: 278 ng/mL
[1]; [14]
  AUC: 886 ng·h/mL
  AUC(0-t): 873 ng·h/mL
[1]; intravenous, single 5 mg i.v. temsirolimus + ketoconazole 400 mg oral, mean (CV), read-out: Tmax
  Tmax: 0.5 h
[1]; intravenous, single 5 mg i.v. temsirolimus + ketoconazole 400 mg oral, mean (CV), read-out: Vss
  Vd: 92 L
[1]; intravenous, single 5 mg i.v. temsirolimus + ketoconazole 400 mg oral, mean (CV), read-out: Vz
  Vd: 174 L
[1]; [15]
  Tmax: 0.5 h
[1]; [16]
  clearance: 95.3 mL/min
  half-life: 22.3 h
[1]; [17]
  Tmax: 0.5 h
[1]; iv, 5 mg, single 5 mg i.v. temsirolimus alone, mean (CV), read-out: Vss
  Vd: 87 L
[1]; iv, 5 mg, single 5 mg i.v. temsirolimus alone, mean (CV), read-out: Vz
  Vd: 182 L
[1]; [18]
  CL: 5.1 (13.8%) l h^−1
  Vss: 91.5 (17.5%) l
[1]; [19]
  CL: 5.7 (11.0%) l h^−1
  Vss: 86.8 (14.6%) l
[1]; [20]
  Least squares geometric mean ratio for AUC: 110%
  Least squares geometric mean ratio for AUCT: 109%
  Least squares geometric mean ratio for Cmax: 94%
[1]; with ketoconazole vs temsirolimus alone
  90% CIs for the least squares geometric mean ratios of Cmax, AUCT, and AUC: 80–125%
[2]; human, in vivo
  Tolerability: well tolerated
[2]; temsirolimus 5 mg + ketoconazole 400 mg, n=14
  Herpes simplex (skin and appendages): 0 n (%)
[2]; temsirolimus 5 mg alone, n=17
  Herpes simplex (skin and appendages): 1 (5.9) n (%)
[2]; temsirolimus alone and with ketoconazole
  Deaths or serious adverse events: No deaths or serious adverse events
[3]; [21]
  Mean area under the curve (AUC): 1580 ng·h/mL
  Mean maximum concentration (Cmax) in whole blood: 595 ng/mL
[4]
  Effect of rifampin on AUC: no effect
[5]
  Reduction in Cmax with concomitant enzyme-inducing anticonvulsant agents: 36%
[6]
  Stability in whole blood: stable

## CO[C@H]1C[C@@H]2CC[C@@H](C)[C@@](O)(O2)C(=O)C(=O)N2CCCC[C@H]2C(=O)O[C@H]([C@H](C)C[C@@H]2CC[C@@H](O)[C@H](OC)C2)CC(=O)[C@H](C)/C=C(\C)[C@@H](O)[C@@H](OC)C(=O)[C@H](C)C[C@H](C)/C=C/C=C/C=C/1C [Sirolimus]
[1]; [22]
  Increase in mean AUC with ketoconazole compared with temsirolimus alone: 3.1 fold and 3.2 fold
  Increase in mean Cmax with ketoconazole compared with temsirolimus alone: 2.2 fold
[1]; [10]
  Decrease in mean apparent metabolic clearance (CL/fm) with ketoconazole: 3.2 fold
[1]
  Intersubject variability, CV for Cmax and AUC: < 33%
[1]; [11]
  Cmax: 29 ng/mL
[1]; [12]
  AUC: 3890 ng·h/mL
  AUC(0-t): 2410 ng·h/mL
  half-life: 113 h
[1]; [13]
  Cmax: 13.3 ng/mL
[1]; [14]
  AUC: 1200 ng·h/mL
  AUC(0-t): 918 ng·h/mL
[1]; intravenous, metabolite sirolimus, single 5 mg i.v. temsirolimus + ketoconazole 400 mg oral, mean (CV), read-out: Vss/fm
  Vd: 227 L
[1]; intravenous, metabolite sirolimus, single 5 mg i.v. temsirolimus + ketoconazole 400 mg oral, mean (CV), read-out: Vz/fm
  Vd: 220 L
[1]; [15]
  Tmax: 3 h
[1]; iv, 5 mg, metabolite sirolimus, single 5 mg i.v. temsirolimus alone, mean (CV), read-out: Vss/fm
  Vd: 494 L
[1]; iv, 5 mg, metabolite sirolimus, single 5 mg i.v. temsirolimus alone, mean (CV), read-out: Vz/fm
  Vd: 480 L
[1]; [16]
  half-life: 75 h
[1]; [17]
  Tmax: 3.3 h
[1]; metabolite sirolimus, 5 mg i.v. temsirolimus + ketoconazole vs temsirolimus alone
  Reduction in apparent clearance with ketoconazole: 69%
[1]; period 2, mean
  Carryover from treatment period 1 to 2, contribution to mean total AUC: 1.9%
[1]; period 2, range
  Carryover from treatment period 1 to 2, contribution to total AUC, range: 1.1–3.7%
[1]; [18]
  T1/2: 112.8 (18.1%) h
[1]; [19]
  T1/2: 74.8 (10.8%) h
[3]; after temsirolimus
  Cmax as % of temsirolimus Cmax values: 10–20%
[4]
  Reduction of AUC by rifampin: 56%
[5]
  Reduction in AUC with concomitant enzyme-inducing anticonvulsant agents: 45%
  Reduction in Cmax with concomitant enzyme-inducing anticonvulsant agents: 67%
[7]
  Increase in blood levels with ketoconazole: ~10 fold
[6]
  Stability in whole blood: stable
